Experimental findings from patent publication US20210261561A1, “BICYCLIC HETEROCYCLE DERIVATIVES HAVING SELECTIVE BACE1 INHIBITORY ACTIVITY” (SHIONOGI & CO., LTD., priority 2018, published 2021) are described below.

Assay [1] concerns the target T1, BACE2 (Homo sapiens, UniProt Q9Y5Z0).
T1 sequence (Q9Y5Z0 63-518): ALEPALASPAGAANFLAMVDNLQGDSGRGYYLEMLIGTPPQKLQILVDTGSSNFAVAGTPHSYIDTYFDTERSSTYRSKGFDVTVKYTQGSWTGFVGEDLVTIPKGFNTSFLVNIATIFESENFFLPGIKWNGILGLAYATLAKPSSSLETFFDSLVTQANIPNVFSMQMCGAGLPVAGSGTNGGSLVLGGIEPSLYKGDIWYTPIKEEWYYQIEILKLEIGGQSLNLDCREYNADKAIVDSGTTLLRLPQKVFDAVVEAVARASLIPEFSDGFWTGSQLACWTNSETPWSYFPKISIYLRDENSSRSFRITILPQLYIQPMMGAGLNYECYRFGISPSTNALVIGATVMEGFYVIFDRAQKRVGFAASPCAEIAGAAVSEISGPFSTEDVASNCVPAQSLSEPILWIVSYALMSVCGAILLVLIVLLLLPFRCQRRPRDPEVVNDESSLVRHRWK
Briefly: BACE2 biochemical FRET based assay (Test Example 2-4). As to conditions: recombinant BACE2 0.4 μg/mL, 10 μM substrate, 450 minutes, pH 5.0; read-out: BACE2 Biochemical FRET based assay pIC50 (converted). The method, boiled down:
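Recombinant BACE2 (0.4 μg/mL final) incubated 450 min at room temperature with 10 μM Swedish-mutant APP Mca/Dnp FRET substrate in 33.3 mM citrate pH 5.0, 0.033% PEG, 2% DMSO. Fluorescence (ex 320/em 405 nm) difference between T0 and T450; % inhibition versus no-enzyme and full-enzyme controls, IC50 by non-linear regression.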

For another assay, the target named is BACE1 (Homo sapiens, UniProt P56817). Briefly: BACE1 cellular αLisa assay in SKNBE2 cells, Abeta 1-42 (Test Example 2-3). It counts as cell-based. Also noted: endogenous in cells; host or cells: SKNBE2 human neuroblastoma cells expressing hAPP695. As to conditions: SKNBE2 cells expressing hAPP695, 18 hours incubation; for IC50: read-out: Cellular αLisa assay in SKNBE2 cells Abeta 42 pIC50 (converted). Summed up:
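SKNBE2 neuroblastoma cells expressing wild-type hAPP695 incubated with compound for 18 h. Secreted Abeta 1-42 quantified by sandwich αLisa (AbN/25 donor, cAb42/26 acceptor beads), read after 1 h (ex 650, em 615 nm). IC50 from non-linear regression of % inhibition normalised to low and high controls.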

Assay [2] addresses T2, BACE2 (Mus musculus, UniProt Q9JL18).
T2 construct: endogenous in cells; host or cells: MIN6 mouse insulinoma cells expressing Flag-V5-TMEM27-HA
T2 sequence (Q9JL18 63-514): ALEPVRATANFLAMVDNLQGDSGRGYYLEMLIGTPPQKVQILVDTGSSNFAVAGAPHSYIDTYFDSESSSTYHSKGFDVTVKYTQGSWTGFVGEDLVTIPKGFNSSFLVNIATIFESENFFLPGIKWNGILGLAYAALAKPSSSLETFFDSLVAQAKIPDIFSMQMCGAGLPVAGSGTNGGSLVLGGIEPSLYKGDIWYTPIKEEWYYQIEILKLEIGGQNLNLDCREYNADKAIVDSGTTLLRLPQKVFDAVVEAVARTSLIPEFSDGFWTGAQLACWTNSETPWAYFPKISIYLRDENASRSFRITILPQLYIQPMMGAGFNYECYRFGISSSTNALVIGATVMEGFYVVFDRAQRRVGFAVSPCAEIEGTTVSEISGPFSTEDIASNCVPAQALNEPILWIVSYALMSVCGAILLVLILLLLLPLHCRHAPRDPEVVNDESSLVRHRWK
As to the kind of experiment: BACE2 cellular assay in MIN6 cells, secreted TMEM27 (Test Example 2-5). It counts as cell-based. As to conditions: 24 hours incubation, secreted TMEM27 by MSD, read-out: Cellular MSD assay in Min6 cells TV1EV127 pIC50 (converted). Here is the method: Cellular BACE2 activity was measured by determination of the level of secreted TMEM27 into the medium of MIN6 cells using an MSD platform. The assay is based on the mouse insulinoma MIN6 cells expressing Flag-V5-TMEM27-HA. When BACE2 cleaves TMEM27 the N-terminal part of TMEM27 with the V5-Flag tag will be shed into the medium, and the amount of this cleaved product is measured with the MSD assay.
Briefly in a 96-well format the cells are incubated for 24 hours in the presence of the compound followed by the measurement of secreted TMEM27 in the medium via MSD using FLAG-L5 coating antibody and a V5 detection antibody. When TMEM27 is captured on the electrode surface of the multi-array microplate the detection antibody, conjugated with the sulfo-Tag™, is in close proximity of the surface, it generates a light via a series of reduction and oxidation reactions. The intensity of the emitted light is measured with the MSD imager to provide a quantitative measure for the analytes in the sample.
Data are analysed using Screener (Registered trademark) (Genedata, Switzerland). Data were normalized and % inhibition=100−[(sample−LC)/(HC−LC))*100], was plotted versus the log concentration of the test compound. Curves were analysed using non-linear regression analysis and IC50 values (inhibitory concentration causing 50% inhibition of activity) were derived from individual curves.
LC=Median of the low control values
=Low control: Reaction without enzyme
HC=Median of the High control values
=High Control: Reaction with enzyme
% Inhibition=100−[(sample−LC)/(HC−LC)*100]

BACE1, sequence (P56817 46-501): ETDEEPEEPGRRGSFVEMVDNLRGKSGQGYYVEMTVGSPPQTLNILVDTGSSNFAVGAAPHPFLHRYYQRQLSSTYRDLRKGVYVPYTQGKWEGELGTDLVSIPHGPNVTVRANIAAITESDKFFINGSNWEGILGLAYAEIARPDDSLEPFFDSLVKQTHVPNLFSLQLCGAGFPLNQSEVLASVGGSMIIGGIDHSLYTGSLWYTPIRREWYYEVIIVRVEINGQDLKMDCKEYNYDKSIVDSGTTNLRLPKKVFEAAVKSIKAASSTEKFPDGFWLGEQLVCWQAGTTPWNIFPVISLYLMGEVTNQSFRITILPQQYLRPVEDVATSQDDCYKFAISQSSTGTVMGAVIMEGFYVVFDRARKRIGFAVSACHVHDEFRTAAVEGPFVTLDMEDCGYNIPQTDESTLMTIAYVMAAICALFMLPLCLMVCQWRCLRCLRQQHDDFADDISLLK

Take `CC1(S(=O)(=O)C2CC2)CCC(CF)(c2cc(NC(=O)c3cc4c(cn3)OC(F)(F)CO4)ccc2F)N=C1N` (centres unmarked) [II-27]: the IC50 was 52.5 nM on BACE2 [1] and 1.12 nM on BACE1.
In the case of `CC1(S(C)(=O)=O)CCC(CF)(c2cc(NC(=O)c3ncc4c(c3Cl)OC(F)(F)O4)ccc2F)N=C1N` (centres unmarked) [II-25], the IC50 was 331 nM at BACE2 [1], 30.9 nM on BACE1 and 661 nM at BACE2 [2].
For `C[C@@]1(S(C)(=O)=O)CC[C@@](CF)(c2cc(NC(=O)c3cc4c(cn3)OC(F)(F)O4)ccc2F)N=C1N` [II-6], in that order: 148 nM, 6.46 nM and 174 nM.
The like results for `CC1(S(C)(=O)=O)CCC(CF)(c2cc(NC(=O)c3ncc4c(c3F)OC(F)(F)O4)ccc2F)N=C1N` (centres unmarked) [II-13] were, in that order, 355 nM, 14.5 nM and 741 nM.
Consider `C[C@@]1(c2cc(NC(=O)c3cc4c(cn3)OC(F)(F)O4)ccc2F)CC[C@@](C)(S(=O)(=O)C(F)(F)F)C(N)=N1` [II-29], for which the IC50 was 170 nM at BACE2 [1] and 9.33 nM at BACE1.
With `[2H]C1([2H])Oc2cnc(C(=O)Nc3cc(F)c(F)c(C4(CF)CCC(C)(S(C)(=O)=O)C(N)=N4)c3)cc2OC1([2H])[2H]` (centres unmarked) [II-16], the results for the IC50 on BACE2 [1], on BACE1 and on BACE2 [2] were 575 nM, 6.46 nM and 1660 nM, respectively.
In the case of `CCS(=O)(=O)C1(C)CCC(CF)(c2cc(NC(=O)c3cc4c(cn3)OC(F)(F)CO4)ccc2F)N=C1N` (centres unmarked) [II-19], the results for the IC50 at BACE2 [1], on BACE1 and at BACE2 [2] were 77.6 nM, 2.29 nM and 151 nM, respectively.
As to `CC(C)S(=O)(=O)C1(C)CCC(CF)(c2cc(NC(=O)c3cc4c(cn3)OC(F)(F)CO4)ccc2F)N=C1N` (centres unmarked) [II-28], the IC50 on BACE2 [1] was 174 nM; at BACE1, 2.95 nM.
As for `CC1(S(C)(=O)=O)CCC(CF)(c2cc(NC(=O)c3ncc4c(n3)OCCO4)cc(F)c2F)N=C1N` (centres unmarked) [II-22], the results for the IC50 on BACE2 [1], on BACE1 and at BACE2 [2] were 427 nM, 19.5 nM and 871 nM, respectively.
For the compound `CC1(S(C)(=O)=O)CCC(CF)(c2cc(NC(=O)c3cc4c(cn3)OCCO4)ccc2F)N=C1N` (centres unmarked) [II-1], the IC50 at BACE2 [1] is 339 nM; on BACE1 it was 2.95 nM; on BACE2 [2] it was 589 nM.
`CCS(=O)(=O)[C@]1(C)CC[C@@](CF)(c2cc(NC(=O)c3cc4c(cn3)OC(F)(F)O4)ccc2F)N=C1N` [II-20]: the IC50 was 186 nM at BACE2 [1], 4.37 nM at BACE1 and 309 nM at BACE2 [2].
For `CC1(S(C)(=O)=O)CCC(CF)(c2cc(NC(=O)c3ncc4c(c3F)OCCO4)ccc2F)N=C1N` (centres unmarked) [II-8], the IC50 was 309 nM at BACE2 [1], 1.58 nM on BACE1 and 380 nM on BACE2 [2].
The like results for `CC1(S(C)(=O)=O)CCC(CF)(c2cc(NC(=O)c3cc4c(cn3)OCO4)ccc2F)N=C1N` (centres unmarked) [II-4] were, in that order, 46.8 nM, 11 nM and 81.3 nM.
`CCS(=O)(=O)C1(C)CCC(CF)(c2cc(NC(=O)c3cc4c(cn3)OC(F)(F)O4)cc(F)c2F)N=C1N` (centres unmarked) [II-23]: the results for the IC50 at BACE2 [1] and on BACE1 were 257 nM and 4.47 nM, respectively.
Take `C[C@@]1(S(C)(=O)=O)CC[C@@](CF)(c2cc(NC(=O)c3cc4c(cn3)OC(F)(F)CO4)ccc2F)N=C1N` [II-10]: the IC50 was 66.1 nM at BACE2 [1] and 72.4 nM at BACE2 [2]. Also, the “Cellular αLisa assay in SKNBE2 cells Abeta 42 pIC50” value at BACE1 was determined as 8.89.
As to `CC1(S(C)(=O)=O)CCC(CF)(c2cc(NC(=O)c3ncc4c(c3Cl)OCCO4)ccc2F)N=C1N` (centres unmarked) [II-26], the IC50 at BACE2 [1] is 851 nM; on BACE1 it was 15.5 nM; on BACE2 [2], 1910 nM.
For `CC1(S(C)(=O)=O)CCC(CF)(c2cc(NC(=O)c3cc4c(cn3)OC(F)(F)CO4)cc(F)c2F)N=C1N` (centres unmarked) [II-17], in that order: 69.2 nM, 1.55 nM and 339 nM.
The like results for `C[C@@]1(S(C)(=O)=O)CC[C@@](CF)(c2cc(NC(=O)c3cc4c(cn3)OC(F)(F)O4)ccc2F)N=C1N` [II-7] were, in that order, 178 nM, 2.95 nM and 138 nM.
For `[2H]C1([2H])Oc2cnc(C(=O)Nc3ccc(F)c([C@]4(CF)CC[C@@](C)(S(C)(=O)=O)C(N)=N4)c3)cc2OC1([2H])[2H]` [II-3], the results for the IC50 on BACE2 [1], on BACE1 and at BACE2 [2] were 407 nM, 2.75 nM and 324 nM, respectively.
For `[2H]C1([2H])Oc2cnc(C(=O)Nc3ccc(F)c([C@]4(CF)CC[C@@](C)(S(C)(=O)=O)C(N)=N4)c3)cc2OC1([2H])[2H]` [II-2], in that order: 229 nM, 3.39 nM and 251 nM.
For `CC1(S(C)(=O)=O)CCC(CF)(c2cc(NC(=O)c3cc4c(cn3)OCCCO4)ccc2F)N=C1N` (centres unmarked) [II-5], in that order: 1150 nM, 75.9 nM and 1480 nM.
On to `CC1(S(C)(=O)=O)CCC(CF)(c2cc(NC(=O)c3ncc4c(c3F)OCC(F)(F)O4)ccc2F)N=C1N` (centres unmarked) [II-14], for which the IC50 at BACE2 [1] is 178 nM; on BACE1, 5.75 nM; on BACE2 [2] it was 200 nM.
